Test results: patent US11260101B2, “Repair peptide for use in promoting post-traumatic tissue repair and regeneration, and application thereof” (Jinan University, priority 2017, dated 2022)
Positions of bridges follow the written chain, without caps; N, C: chain ends. No end group written: not given here.

What was measured:
[1] = system: mouse fibroblasts Balb/c 3T3; assay: Proliferation-promoting effect on fibroblasts Balb/c 3T3, CCK-8 method; format: cell-based; conditions: 24 hours treatment
Experimental: 2. Detection of the Proliferation-Promoting Effects of Repair Peptides R1, R2, R3 and R4, and the bFGF Respectively on Fibroblasts Balb/c 3T3 by Using the CCK-8 Method
(§1) The Ballb/c 3t3 cells were plated in 96-well plates at 4000 cells per well. After the cells were adhered and then starved for 24 hours, the cells were treated for 24 hours with the repair peptides R1, R2, R3 or R4, or the bFGF respectively at concentrations increased by 5 times. After that, the cells were treated with a CCK-8 reagent, and the optical density (OD) value of each well was detected by an enzyme-labeled instrument.

[2] = system: human umbilical vein endothelial cells (HUVEC); assay: Proliferation-promoting effect on HUVEC, CCK-8 method; format: cell-based; conditions: 24 hours treatment
Experimental: 3. Detection of the Proliferation-Promoting Effects of Repair Peptides R1, R2, R3 and R4, and the bFGF Respectively on Human Umbilical Vein Endothelial Cells (HUVEC) by Using the CCK-8 Method
as §1, with “HUVEC” for “Ballb/c 3t3”, “with” for “with the”, “OD” for “optical density (OD)”

[3] = system: chick embryo chorioallantoic membrane; assay: Angiogenesis in chick embryo chorioallantoic membrane, R1-R4 at the same concentration; format: in vivo; conditions: 100 μL at 100 ng/mL, three days culture
Experimental: 5. Detection of the Angiogenesis in the Chick Embryo Chorioallantoic Membrane Promoted by Repair Peptides R1, R2, R3 and R4
A fertilized egg cultured for 5 days was placed with the bigger head of the egg up, then the eggshell was removed. 100 μL of repair peptides R1, R2, R3 and R4 at concentration of 100 ng/mL was respectively added drop-wise into the exposed chick embryo chorioallantoic membrane, and the opening was sealed with clean filter paper. A blank control group treated with PBS solution was set up. Further cultured for three days, then the chick embryo chorioallantoic membrane was peeled off, observed under a stereoscope and photographed, and the image was analyzed by using the software, ImageJ plus.

[4] = system: skin wound; assay: Skin wound healing after back incision; format: in vivo, Balb/c mice; conditions: 10 μL drop-wise into 1-cm sutured incisions once a day
Experimental: 6. Detection of the Wound Healing in […] Skin Promoted by Repair Peptides R1, R2, R3 and R4
Balb/c mice were anesthetized by intra-peritoneal injection with 1% pentobarbital sodium (100 mg/kg), and the back was depilated and disinfected using conventional sterilization methods with 1% iodophor and 75% alcohol. Both sides of the back were cut symmetrically leaving 1-cm incisions. The incisions were sutured with two needles in the sterilized surgery. Then 10 μL of repair peptides R1, R2, R3 and R4 are respectively added drop-wise into the wounds. The wounds were open with no cotton yarn covered. A blank control group treated with PBS solution was set up.

[5] = target: FGFR2 (Homo sapiens, UniProt P21802); assay: Affinity to FGFR2 by isothermal titration calorimetry (ITC); format: binding; conditions: for Kd: read-out: dissociation constant Kd with FGFR2
Description: 1. Detection of the Affinity Between the Repair Peptide R1 and FGFR2 by Using the ITC Method
(The K denoted the affinity constant, and the Kd denoted the dissociation constant. The larger the K was and the smaller the Kd was, the stronger the affinity was).

[6] = system: chick embryo chorioallantoic membrane; assay: Angiogenesis in chick embryo chorioallantoic membrane, R1 at increasing concentrations; format: in vivo; conditions: 10 μL at concentrations increased by 25 times, three days culture
Experimental: 4. Angiogenesis in the Chick Embryo Chorioallantoic Membrane Promoted by the Repair Peptide R1
A fertilized egg cultured for 5 days was placed with the bigger head of the egg up. The eggshell was removed, and a silica gel ring was placed in the middle of the exposed chick embryo chorioallantoic membrane. 10 μL of the repair peptide R1 at concentrations increased by 25 times was respectively added drop-wise into the silica gel ring, and the opening was sealed with clean filter paper. A blank control group treated with PBS solution was set up. Further cultured for three days, then the chick embryo chorioallantoic membrane was peeled off, observed under a stereoscope and photographed, and the image was analyzed by using the software, ImageJ plus.

[7] = lower concentration groups (≤0.16 μM)

Sequence of FGFR2 (P21802 22-821, species assumed): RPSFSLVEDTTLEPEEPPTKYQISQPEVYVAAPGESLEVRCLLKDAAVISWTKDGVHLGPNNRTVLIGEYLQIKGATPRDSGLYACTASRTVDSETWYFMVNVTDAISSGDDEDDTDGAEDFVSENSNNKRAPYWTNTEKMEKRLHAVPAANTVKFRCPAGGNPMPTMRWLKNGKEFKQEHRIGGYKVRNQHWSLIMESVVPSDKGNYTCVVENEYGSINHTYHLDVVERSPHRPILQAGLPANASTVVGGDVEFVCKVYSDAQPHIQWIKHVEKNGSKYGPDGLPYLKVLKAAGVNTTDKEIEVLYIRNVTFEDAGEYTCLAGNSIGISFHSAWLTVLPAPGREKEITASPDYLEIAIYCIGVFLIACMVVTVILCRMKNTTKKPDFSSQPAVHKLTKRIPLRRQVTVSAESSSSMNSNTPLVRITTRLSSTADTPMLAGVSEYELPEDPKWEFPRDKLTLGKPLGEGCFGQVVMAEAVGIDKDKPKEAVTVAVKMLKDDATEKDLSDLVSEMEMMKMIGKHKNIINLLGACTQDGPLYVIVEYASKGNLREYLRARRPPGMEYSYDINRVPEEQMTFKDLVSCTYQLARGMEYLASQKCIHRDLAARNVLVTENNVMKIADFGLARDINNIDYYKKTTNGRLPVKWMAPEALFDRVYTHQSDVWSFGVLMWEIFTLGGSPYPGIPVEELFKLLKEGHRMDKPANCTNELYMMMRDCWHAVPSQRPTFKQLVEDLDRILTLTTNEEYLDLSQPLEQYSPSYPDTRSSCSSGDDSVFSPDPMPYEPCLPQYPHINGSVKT

Row | Substance | proliferation-promoting activity on Balb/c 3T3 (OD, CCK-8) ([1]; higher concentration groups) | proliferation-promoting activity on Balb/c 3T3 (OD, CCK-8) ([1]; lower concentration groups) | proliferation-promoting activity on HUVEC (OD, CCK-8) ([2]; higher concentration groups) | proliferation-promoting activity on HUVEC (OD, CCK-8) [2, 7] | capillaries in the chick embryo chorioallantoic membrane [3] | skin wound healing [4] | affinity constant K with FGFR2 [5] [M⁻¹] | affinity to FGFR2 relative to that of bFGF ([5]; R1-FGFR2 versus bFGF-FGFR2) | Kd [5] [µM] | capillaries in the chick embryo chorioallantoic membrane [6]
1 | CGPANVETC (disulfide 1-9 (inferred)) [R4] | still had a proliferation-promoting activity | comparable proliferation-promoting activity | still had a proliferation-promoting activity | comparable proliferation-promoting activity | significantly increased | the healing was sped up |  |  |  | 
2 | GPANVEKEKEK (R3) | still had a proliferation-promoting activity | comparable proliferation-promoting activity | still had a proliferation-promoting activity | comparable proliferation-promoting activity | significantly increased | the healing was sped up |  |  |  | 
3 | GPANVET [R1, GPANVET] | still had a proliferation-promoting activity | comparable proliferation-promoting activity | still had a proliferation-promoting activity | comparable proliferation-promoting activity | significantly increased | the healing was sped up | 7.35e+08 ± 2.1e+08 | about 4,500 times | ~0.00137 | significantly increased with the increasing dose
4 | KVKVGPANVKVKV (R2) | still had a proliferation-promoting activity | comparable proliferation-promoting activity | still had a proliferation-promoting activity | comparable proliferation-promoting activity | significantly increased | the healing was sped up |  |  |  | 
5 | bFGF: recombinant basic Fibroblast Growth Factor (155 amino acids), clinically applied to wounds and burns | cell proliferation was inhibited | comparable proliferation-promoting activity | cell proliferation was inhibited | comparable proliferation-promoting activity |  |  | 162000 ± 25000 |  | ~6.17 | 
